In patent US4529600A, “Pentadeuterioretinoids” (SRI International, priority 1982, dated 1985):

Legend:
[1] = test system: keratinization in hamster tracheal organ culture; experiment: tracheal organ culture assay: reversal of keratinization in hamster tracheal organ culture; format: cell-based; details: 10 days in culture
Protocol: (§1) The ODC assay measures a compound's effect on the prevention of the induction of ODC. The tracheal organ culture assay measures a compound's ability to reverse keratinization. For comparison purposes retinoic acid was also tested by these assays.
The tracheal organ culture assay is carried out as follows. Tracheas are taken from hamsters that are in very early stages of vitamin A deficiency and placed in organ culture. At the time of culture, the animals are still gaining weight; the tracheal epithelium is generally low columnar or cuboidal, with only occasional patches of squamous metaplasia. Each trachea is opened from the larynx to the carina along the membranous dorsal wall and cultured in a serum-free medium (CMRL-1066; with crystalline bovine insulin, 0.1 μg/ml; hydrocortisone hemisuccinate, 0.1 μg/ml; glutamine, 2 mM; penicillin, 100 units/ml; and streptomycin,100 μg/ml, added). Cultures are gassed with 50% oxygen, 45% nitrogen, and 5% CO2. The culture dishes are rocked at 35.5-36.0 degrees to allow the tracheas contact with both gas and medium. All tracheas are grown in medium containing no retinoid for the first 3 days. At the end of 3 days, some tracheas are harvested; almost all of these tracheas have significant squamous metaplasia, and approximately 60% have keratinized lesions. The remaining tracheas are then divided into different groups which are treated with either: (1) retinoid dissolved in dimethylsulfoxide (final concentration of DMSO in culture medium is never greater than 0.1%) or (2) an equivalent amount of DMSO alone. Culture medium is changed three times a week, and all of the remaining tracheas are harvested at the end of 10 days in culture. Tracheas are fixed in 10% buffered formalin and embedded in paraffin. Cross sections of five micrometers are made through the mid-portion, stained with hematoxylin and eosin, and then scored with a microscope for the presence of keratin and keratohyaline granules, both of which are found in approximately 90% of control cultures that received no retinoid for the entire 10 day culture period.

[2] = test system: ornithine decarboxylase; experiment: ODC assay: inhibition of induction of ornithine decarboxylase by 12-O-tetradecanoylphorbol-13-acetate in mouse skin; format: in vivo, mouse (female Charles River CD-1); details: topical, 1 hour before TPA (17 nmol)
Protocol: as §1
The ODC assay is carried out as follows. Female Charles River CD-1 mice from Charles River Breeding Laboratories, Wilmington, Mass., are used (age 7 to 9 weeks). The dorsal hair of the mice is shaved 1 to 2 days before testing, and only mice showing no hair regrowth are used. A single dose of 12-O-tetradecanoylphorbol-13-acetate (TPA) (10.5 μg, 17 nmol) in 0.2 mL of acetone is applied topically to the back of each mouse. The test compound, at one of three dose levels (1.7, 17, and 170 nmol), dissolved in 0.2 mL of acetone is applied 1 hour before the TPA treatment to the test groups; the control group is treated with acetone alone. The mice are killed by cervical dislocation five hours after TPA treatment. Determinations are done in triplicate.
The epidermis is obtained from the sacrificed animals. To obtain sufficient material, the dorsal skins from 2 to b 3 mice in each treatment group are pooled. The depilatory agent Nudit® (Helena Rubinstein, New York) is applied to the shaved area of the skin; after 5 minutes, it is washed off thoroughly with cold tap water. […]
The supernatant fraction remaining after centrifugation of the homogenate at 10,000×g for 30 seconds at 0° C. is used for the enzyme assay. Enzyme activity is determined using the microassay for ODC as described by Verma and Boutwell to measure the release of ^14 CO2 from DL-[1-^14 C]-ornithine (58 mCi/mmol) after incubation with the 10,000×g supernatant. […]
Radioactivity is measured using a toluene-based scintillant (4 g of PPO and 50 mg of POPOP/L of toluene) in a Beckman LS-250 liquid scintillation counter. Enzyme activity is determined in triplicate and expressed as nanomoles of CO2 released in 30 minutes per milligram of protein. […] The protein concentrations of the epidermal extracts are determined by the Lowry procedure, using bovine serum albumin as the standard.

Row | SMILES | Reversal of Keratinization, Active Cultures (%) ([1]; 10^-9 M) | Reversal of Keratinization, Active/Total Cultures ([1]; 10^-9 M) | Reversal of Keratinization, Active Cultures (%) ([1]; 10^-10 M) | Reversal of Keratinization, Active/Total Cultures ([1]; 10^-10 M) | Inhibition of Induction of Ornithine Decarboxylase by 12-O-Tetradecanoylphorbol-13-acetate in Mouse Skin, % Inhibition of Control ([2]; dose 1.7 nmol) | Inhibition of Induction of Ornithine Decarboxylase by 12-O-Tetradecanoylphorbol-13-acetate in Mouse Skin, % Inhibition of Control ([2]; dose 17 nmol) | Reversal of Keratinization, Active Cultures (%) ([1]; 10^-8 M) | Reversal of Keratinization, Active/Total Cultures ([1]; 10^-8 M)
1 | [2H]C([2H])([2H])C1=C(/C=C/C(C)=C/C=C/C(C)=C/C(=O)O)C(C)(C)CCC1([2H])[2H] [(E)-retinoic acid-4,4,18,18,18-d5] | 100% | 8/8 | 86% | 6/7 | 90% | 90% | – | –
2 | CC1=C(/C=C/C(C)=C/C=C/C(C)=C/C(=O)O)C(C)(C)CCC1 [(E)-retinoic acid] | 88% | 419/474 | 52% | 134/256 | 87-91% | – | 100% | 236/236
